Data from US4888431A, “Process for the preparation of substituted fused tetrahydrocarbazole acetic acid derivatives” (American Home Products Corporation, priority 1989, dated 1989).

Columns and labels:
[1] = system: Male Sprague Dawley rats; assay: Preventative Adjuvant Edema (acute anti-inflammatory effect, hind paw edema volume); format: in vivo; conditions: 25 mg/kg, p.o., edema volume day 0 to day 3
Method: This test is a primary screen for anti-inflammatory drugs.
Male Sprague Dawley rats (180-200 g) are used. The animals have free access to water but food is withdrawn 18 hours before testing.
Freund's complete adjuvant is prepared by suspending 5 mg of killed and dried Mycobacterium butyricum (Difco) in 1 ml liquid paraffin. The test compounds are dissolved in distilled water or suspended in 0.5% Tween 80 in distilled water according to their solubility. For primary screening all drugs are administered by gastric lavage at the arbitrary dosage of 25 mg/kg, p.o. in a volume of 0.5 mL/100 g body weight to groups of 10 animals.
The method is essentially that described by Wax et al, J. Pharmacol. Exp. Ther., 192, 166-171 (1975). Groups of rats are injected intradermally in the left hind paw with 0.1 mL of Freund's complete adjuvant. The test compound or vehicle is administered immediately before the adjuvant, 24 hours and 48 hours after the adjuvant (days 0, 1 and 2). The injected hind paw volume is measured before the injection of adjuvant and 24 hours after the last drug administration (day 3) by means of a plethysmometer (Buxco Electronics Inc.). The difference between the hind paw volume on day 0 and day 3 represents the edema volume. Etodolac (25 mg/kg, p.o.) is included as a positive control.
The mean edema volume (expressed as mL ±SEM) is calculated for each group and the percentage inhibition of inflammation conferred by the drug is calculated: [formula] where c is the mean edema volume for the untreated controls and t is the mean edema volume for the drug treated group.

[2] = system: Male Swiss albino mice; assay: Drug Effects on Phenylbenzoquinone-induced Writhing in Mice; format: in vivo; conditions: 10 mg/kg, p.o., PBQ i.p. 60 minutes after dosing, writhes counted over 15 minutes
Method: A further test used to determine the utility of the compounds of the present invention is designated: Drug Effects on Phenylbenzoquinone-induced Writhing in Mice
The objective of this test is to determine the ability of test drugs to inhibit the nociceptive (pain) response of mice injected with a chemical irritant. This test is a primary screen for both peripheral and centrally acting analgesic drugs.
Male Swiss albino mice (15-25 g) are used. The animals are fasted for 18 hours prior to use but have free access to water.
Drugs are dissolved or suspended according to their solubility in 0.5% Tween 80 in distilled water. They are administered by gastric gavage in a volume of 5 mL/kg. For primary screening all drugs are administered at the arbitary dosage of 25 mg/kg, p.o. to a group of 10 mice.
A modification of the method of Siegmund et al, Proc. Soc. Exp. Biol. Med., 95, 729-731 (1957) is used. Groups of 5 mice are dosed with the test compound or vehicle control. Sixty minutes later the animals are injected i.p. with 0.3 mL/20 g body weight of a 0.02% solution of phenylbenzoquinone (PBQ; 2-phenyl-1,4-benzoquinone) and placed in individual observation boxes. The number of writhing or abdominal squirming movements made by each mouse during the following 15 minute period is counted. The experiment is repeated with another group of 5 mice and the mean number of writhes per mouse for a group of 10 mice is calculated.
Drug treated and vehicle-treated control groups are compared and the percentage inhibition of writhing conferred by the drug is calculated: [formula] where c=mean number of writhes in the control group where t=mean number of writhes in the test drug group

With `Cc1c(Cl)ccc2c3c([nH]c12)[C@]1(CC(=O)O)CC[C@@H]1CC3Cc1ccccc1` (relative stereo) [Example 1, cis-7-Chloro-1,2,2a,3,4,9-hexahydro-8-methyl-4-(phenylmethyl)-9bH-cyclobuta[a]carbazole-9b-acetic Acid] the “inhibition (Preventative Adjuvant Edema)” value [1] was 26% and the “inhibition (Phenylbenzoquinone Writhing in Mice)” value [2] was 73%.

`Cc1c(Cl)ccc2c3c([nH]c12)[C@@]1(CC(=O)O)CC[C@H]1CC3` (relative stereo) [Example 2, cis-7-Chloro-1,2,2a,3,4,9-hexahydro-8-methyl-9bH-cyclobuta[a]carbazole-9b-acetic Acid] was tested, and the “inhibition (Preventative Adjuvant Edema)” value [1] was 85% and the “inhibition (Phenylbenzoquinone Writhing in Mice)” value [2] was 56%.

For `O=C(O)C[C@]12CC[C@H]1CCc1c2[nH]c2ccccc12` (relative stereo) [Example 4, cis-1,2,2a,3,4,9-Hexahydro-9bH-cyclobuta[a]carbazole-9b-acetic Acid], the “inhibition (Preventative Adjuvant Edema)” value [1] was 64% and the “inhibition (Phenylbenzoquinone Writhing in Mice)” value [2] was 21%.

In the case of `CCCc1cc(C(C)=O)cc2c3c([nH]c12)[C@@]1(CC(=O)O)CC[C@H]1CC3` (relative stereo) [Example 5, cis-6-Acetyl-1,2,2a,3,4,9-hexahydro-8-propyl-9bH-cyclobuta[a]carbazole-9b-acetic Acid], the “inhibition (Phenylbenzoquinone Writhing in Mice)” value [2] is reported as 56%.

`CCc1cccc2c3c([nH]c12)[C@]1(CC(=O)O)C[C@@H]1CC3` (relative stereo) [Example 6, (1a. α,8b. α)-7-Ethyl-1,1a,2,3,8,8b-hexahydrocyclopropa[a]carbazole-8b-acetic Acid] was tested, and the “inhibition (Preventative Adjuvant Edema)” value [1] was 13% and the “inhibition (Phenylbenzoquinone Writhing in Mice)” value [2] was 27%.

With `O=C(O)C[C@@]12CC[C@@H]1CC(Cc1ccccc1)c1c2[nH]c2ccccc12` (relative stereo) [Example 7, cis-1,2,2a,3,4,9-Hexahydro-4-(phenylmethyl)-9bH-cyclobuta[a]carbazole-9b-acetic Acid] the “inhibition (Phenylbenzoquinone Writhing in Mice)” value [2] was 0%.
